Assay results from ChEMBL document CHEMBL1149669, “Sulfonamide derivatives as new potent and selective CB2 cannabinoid receptor agonists” (Bioorg Med Chem Lett, 2007).

What was measured:
Cannabinoid receptor 1 = Cannabinoid receptor 1 (Homo sapiens, UniProt P21554); experiment: Displacement of [3H]CP-55940 from human CB1 receptor expressed in CHO cells; type: cell-based
Cannabinoid receptor 2 [1] = biological target: T1, Cannabinoid receptor 2 (Homo sapiens, UniProt P34972); experiment: Agonist activity at human CB2 receptor expressed in CHO cells by [35S]GTP-gamma-S binding assay; type: functional, cell-based
T1 sequence (P34972 whole entry): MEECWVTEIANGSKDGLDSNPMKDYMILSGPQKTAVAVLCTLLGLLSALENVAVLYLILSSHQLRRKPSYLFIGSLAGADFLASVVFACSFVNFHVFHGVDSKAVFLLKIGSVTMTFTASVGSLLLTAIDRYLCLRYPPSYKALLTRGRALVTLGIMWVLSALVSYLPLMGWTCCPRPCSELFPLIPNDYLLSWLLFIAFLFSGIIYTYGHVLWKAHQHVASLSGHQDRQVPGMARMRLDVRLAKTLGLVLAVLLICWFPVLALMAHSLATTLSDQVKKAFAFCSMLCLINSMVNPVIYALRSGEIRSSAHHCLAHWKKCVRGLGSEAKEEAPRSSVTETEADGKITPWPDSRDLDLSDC

Cannabinoid receptor 2 [2] = biological target: T1, Cannabinoid receptor 2; experiment: Displacement of [3H]CP-55940 from human CB2 receptor expressed in CHO cells; type: cell-based
Cannabinoid receptor 2 [3] = biological target: T1, Cannabinoid receptor 2; experiment: Agonist activity at human CB2 receptor expressed in CHO cells by [35S]GTP-gamma-S binding assay relative to CP-55940; type: functional, cell-based
Homo sapiens = species: Homo sapiens; experiment: Selectivity for human CB2 receptor over human CB1 receptor

Sequence of Cannabinoid receptor 1 (P21554 whole entry): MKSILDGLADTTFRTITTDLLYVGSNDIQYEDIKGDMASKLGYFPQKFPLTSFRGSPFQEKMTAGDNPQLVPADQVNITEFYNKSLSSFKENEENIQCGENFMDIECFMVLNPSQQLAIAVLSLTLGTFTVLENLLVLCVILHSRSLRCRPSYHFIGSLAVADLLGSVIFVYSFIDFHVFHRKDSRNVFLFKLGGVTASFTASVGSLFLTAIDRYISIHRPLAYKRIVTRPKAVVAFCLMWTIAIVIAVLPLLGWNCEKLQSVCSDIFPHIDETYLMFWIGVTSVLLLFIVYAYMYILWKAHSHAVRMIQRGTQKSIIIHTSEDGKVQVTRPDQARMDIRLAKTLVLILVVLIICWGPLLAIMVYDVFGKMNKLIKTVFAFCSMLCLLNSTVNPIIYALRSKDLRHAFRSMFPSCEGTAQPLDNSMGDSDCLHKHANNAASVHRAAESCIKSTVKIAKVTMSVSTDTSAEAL

| SMILES | IC50 (Cannabinoid receptor 1) [nM] | EC50 (Cannabinoid receptor 2 [1]) [nM] | IC50 (Cannabinoid receptor 2 [2]) [nM] | Emax (Cannabinoid receptor 2 [3]) [%] | Ratio IC50 (Homo sapiens) |
| --- | --- | --- | --- | --- | --- |
| Cc1c(C(C)(C)C)s/c(=N\S(=O)(=O)c2cccc3ccccc23)n1CC1CC1 | 1700 | 7.2 | 16 | 100 | 106 |
| CC(C)=CCn1c(C)c(C(C)(C)C)s/c1=N\S(=O)(=O)c1ccccc1 |  |  | 170 |  |  |
| C=CCn1c(C)c(C(C)(C)C)s/c1=N\S(=O)(=O)c1ccccc1 |  |  | 75 |  |  |
| Cc1c(C(C)(C)C)s/c(=N\S(=O)(=O)c2ccccc2)n1C | > 50000 | 110 | 340 | 110 |  |
| C#CCn1c(C)c(C(C)(C)C)s/c1=N\S(=O)(=O)c1ccccc1 |  |  | 210 |  |  |
| Cc1c(C(C)(C)C)s/c(=N\S(=O)(=O)c2ccc3ccccc3c2)n1CC1CC1 |  |  | 490 |  |  |
| Cc1c(C(C)(C)C)s/c(=N\S(=O)(=O)c2ccccc2)n1CC1CC1 |  |  | 65 |  |  |
